# Results reported in US7553837B2, “Phenylazole compounds production process and antioxidants” (Nippon Soda Co., Ltd., priority 2003, dated 2009).
# How the values were obtained:
# [1] = Acute oral toxicity, single oral dose, mortality rate after 7 days; conditions: mouse, in vivo, male mice, observed for 7 days
# Protocol: A single dose of each of the compounds of the present invention was orally administered to male mice. After observing for 7 days, a mortality rate was determined.
# [2] = tested on: lipid peroxidation activity of each tissue homogenate (brain, heart and kidney); assay: Tissue migration properties: ex vivo lipid peroxidation inhibition in brain, heart and kidney homogenates; conditions: SD male rats, 100 mg/kg intraperitoneally, 30 minutes after administration
# Protocol: An in vitro lipid peroxidation inhibition of the compounds of the present invention was evaluated by measuring a lipid peroxidation activity in a rat brain homogenate according to a process of Malvy, c., et al., Biochemical and Biophysical Research Communications, 1980, Vol. 95, p. 734-737. That is, a rat brain was extracted and a 5-fold amount of an aqueous phosphoric acid buffered saline solution (pH 7.4) (hereinafter abbreviated to PBS) was added to the brain under ice cooling, followed by homogenization using a Teflon homogenizer and further centrifugation at 10,000 g for 20 minutes to prepare a brain homogenate as a supernatant. To the brain homogenate thus prepared, 500 μM cysteine, 5 μM sulfuric acid monobasic iron and 100 mM KCl were added, followed by incubation at 37° C. for 30 minutes. Malondialdehyde produced by the […] of lipid peroxidation was measured by a thiobarbituric acid process.
# Tissue migration properties of the compounds of the present invention were evaluated by measuring an ex vivo lipid peroxidation inhibition. A solution or suspension prepared by dissolving or suspending each of test compounds in an aqueous physiological saline solution or a 1% poly oxy ethylene hydrogenated castor oil (NIKKOL HCO-60, manufactured by Nikko Chemicals Co., Ltd.) physiological saline solution was intraperitoneally administered to SD male rats (one group: 3 rats, 6 weeks old) (available from Nippon SLC Co., Ltd.) at a dose of 100 mg/kg. 30 Minutes after administration, rats were bled to death by cutting the carotid artery and then the brain, heart and kidney were extracted. A lipid peroxidation activity of each tissue homogenate was measured by the process described in Example 18. An inhibition ratio in each tissue of the compounds of the present invention was determined from the amount of lipid peroxidation produced of a control group (physiological saline administration group) and a test compound administration group.
# [3] = tested on: lipid peroxidation in retina homogenate; assay: Retina migration properties: ex vivo retinal lipid peroxidation production inhibition; type: in vivo; conditions: SD male rats, retina taken after 30 minutes
# Protocol: Retina migration properties of the compounds of the present invention were evaluated. To SD male rats (one group: 3 rats, 6 weeks old), a solution or suspension prepared by dissolving or suspending each of the test compounds in a 0.1N hydrochloric acid solution or a 1% poly oxy ethylene hydrogenated castor oil (NIKKOL HCO-60) solution was orally administered. After 30 minutes, both eyes were extracted and the retina was separated under ice cooling. A 5% homogenate solution of the retina was prepared in a 0.1M tris-hydrochloric acid buffer (pH 7.4) under ice cooling using a polytron homogenizer for a trace amount (NS-310E: manufactured by Nichion Irika Kiki Co., Ltd.) and, after autoxidation at 37° C. for one hour, the amount of lipid peroxidation produced was determined by a thiobarbituric acid process (MASUGI et al., vitamin 51, 21-29, 1977). A 30% inhibitory dose (ID30) was determined from the inhibition ratio at each dose. As is apparent from the results, the compounds of the present invention have an ex vivo retinal lipid peroxidation production inhibitory action and is also excellent in retina migration properties.
# [4] = tested on: 66 kDa protein in the retina; assay: 66 kDa protein increase inhibitory action in retina of rats irradiated with UV-A; type: in vivo; conditions: Wistar male rats, 10 mg/kg, p.o., UV-A irradiation, retina 48 hours after irradiation, N = 3
# Protocol: An action for inhibition of an increase in 66 kDa protein in the retina of rats irradiated with ultraviolet light of the compounds of the present invention was evaluated. To Wistar male rats (7 to 9 weeks old), a solution or suspension prepared by dissolving or suspending each of test compounds in a 0.1N hydrochloric acid solution or a 1% poly oxy ethylene hydrogenated castor oil (NIKKOL HCO-60) solution was orally administered. After 30 minutes, right eye was irradiated with UV-A (12 mW/cm^2) using a UV spot light source for 30 minutes. Left eye was not irradiated (control). During irradiation with UV-A and 2 hours before and after irradiation, rats were bred under an atmosphere where room light is screened. 48 hours after irradiation, the retina was separated. In the same manner as in Example 21, a 5% homogenate solution was prepared. Regarding a change in retinal protein, SDS-polyacrylamide electrophoresis was carried out according to the process of Lammli (Nature, […], 680-685, 1970). […] Then, the specimen was decolored with ethanol:acetic acid:water (25:8:65) and the 66 kDa protein after migration was analyzed by a densitograph. The amount of the protein in the specimen was determined by a Lowry process.
compound,measurement,setting,value
Cc1c(C)c2c(c(C)c1N)CC(C)(CN1CCN(c3cccc(-n4ccnc4)c3)CC1)O2 (stereo not drawn) [Compound B-1-18],LD50 at 7 days,[1],> 1000 mg/kg
same,Ex vivo lipid peroxidation inhibition inhibition ratio (%) Brain,[2]; brain homogenate,77%
same,Ex vivo lipid peroxidation inhibition inhibition ratio (%) Heart,[2]; heart homogenate,88%
same,Ex vivo lipid peroxidation inhibition inhibition ratio (%) Kidney,[2]; kidney homogenate,89%
same,"Lipid peroxidation inhibition 30% inhibitory concentration (ID30, oral administration) in ex vivo retina",[3],12 mg/kg
same,66 kDa protein ratio in retina of rats irradiated with ultraviolet light (right eye: irradiated/left eye: non-irradiated),[4],1.50
